Experimental findings from publication PMC4128046, “Effect of a toggle switch mutation in TM6 of the human adenosine A3 receptor on Gi protein-dependent signalling and Gi-independent receptor internalization” (British Journal of Pharmacology, 2014) are described below.

Read-outs that look alike come from different tables or passages of the source.

One test addresses T1, SNAP-A3 W243F (Homo sapiens, UniProt P0DMS8, W243F).
T1 construct: the methionine start signal was removed from cDNA encoding the full length A3; expressed in transfected cells; host or cells: CHO CRE-SPAP, transient (Fugene HD)
T1 sequence (P0DMS8 2-318 W243F limits assumed): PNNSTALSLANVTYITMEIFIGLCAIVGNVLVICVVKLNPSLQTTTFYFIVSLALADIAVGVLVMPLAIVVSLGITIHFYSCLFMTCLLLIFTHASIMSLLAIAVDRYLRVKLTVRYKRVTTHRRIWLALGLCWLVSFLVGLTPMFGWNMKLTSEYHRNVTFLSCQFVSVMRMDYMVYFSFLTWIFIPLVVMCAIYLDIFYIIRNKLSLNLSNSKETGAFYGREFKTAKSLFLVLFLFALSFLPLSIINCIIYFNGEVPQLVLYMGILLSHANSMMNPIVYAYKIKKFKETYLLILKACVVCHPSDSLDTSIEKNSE
The test can be described thus: Confocal imaging of SNAP-tagged receptor internalization, SNAP-A3 W243F. As to conditions: SNAP-A3 W243F transiently expressed in CHO CRE-SPAP cells, BG-AF488 label, 10 μM agonist. Format: cell-based. How it is done:
CHO-K1 cells stably expressing a cAMP response element-secreted placental alkaline phosphatase (CRE-SPAP) reporter gene (CHO CRE-SPAP) under hygromycin selectivity and CHO-K1 cells stably expressing β-arrestin2-vYnL (CHO β-arrestin2-vYnL, a gift from Dr. N. Holliday, University of Nottingham, Nottingham, UK) were maintained in DMEM/F12 medium containing 10% FCS and 2 mM L-glutamine at 37°C in a humidified atmosphere of air/CO2 (19:1). […] Cell lines were initially screened for YFP or bimolecular fluorescence complementation (BiFC) fluorescence and CRE-SPAP cells lines were subsequently tested in the CRE-SPAP gene transcription assay. […]
Live-cell BiFC imaging was performed on A3-vYc/β-arrestin2-vYnL and A3 W243F-vYc/β-arrestin2-vYnL cells grown in Nunc Labtek 8-well plates, and images obtained using a Zeiss 710 confocal microscope (Carl Zeiss GmbH, Jena, Germany) fitted with a 63× plan-Apochromat NA1.4 Ph3 oil-immersion objective. […] For both YFP, BiFC and BG-AF488 label, a 488 nm argon laser was used to excite the fluorophore and emission was detected using a BP505-530 filter. […] Images of A3-YFP and A3 W243F-YFP cells were taken with same pinhole diameter, laser power, gain and offset to allow comparison of YFP fluorescence. To obtain fluorescence intensity values, a region of interest was drawn around the plasma membrane of 10 cells per image in Zeiss AIM 4.2 software (Carl Zeiss GmbH).

Test [1] concerns the target T2, human A3 receptor fused to YFP (A3-YFP) (Homo sapiens, UniProt P0DMS8).
T2 construct: cDNA encoding the full length human A3 receptor; expressed in transfected cells
T2 sequence (P0DMS8 1-318): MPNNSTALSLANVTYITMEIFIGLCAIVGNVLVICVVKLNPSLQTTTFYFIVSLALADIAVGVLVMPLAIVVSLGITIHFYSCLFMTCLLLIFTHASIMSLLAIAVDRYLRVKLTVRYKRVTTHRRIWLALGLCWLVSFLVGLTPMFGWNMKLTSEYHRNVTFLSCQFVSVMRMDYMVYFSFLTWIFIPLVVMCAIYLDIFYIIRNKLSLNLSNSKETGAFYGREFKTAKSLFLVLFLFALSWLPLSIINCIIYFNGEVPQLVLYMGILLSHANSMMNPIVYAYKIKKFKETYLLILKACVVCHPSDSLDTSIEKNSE
The test can be described thus: Automated imaging of receptor internalization (granularity analysis), A3-YFP. Type of test: cell-based. The settings on record: for Maximal internalization (%): percentage of internalization with 10 μM NECA in the cell line. The source says:
Immediately before experimentation, normal growth medium was replaced with serum-free medium. […] Medium was removed and cells were washed once in PBS. […] Images were obtained using an ImageXpress Ultra confocal plate reader (Molecular Devices, Sunnyvale, CA, USA). Four central images were obtained per well using a Plan Fluor 40x NA0.6 extra-long working distance objective. BiFC and YFP images were obtained by excitation with a 488 nm laser line with emission collected through a 525-550 nm band pass filter and H33342 images obtained by excitation with a 405 nm laser line and emission collected through a 447-460 nm band pass filter. Granularity analysis was performed on the resulting images using a granularity algorithm within MetaXpress software (Molecular Devices, Sunnyvale, CA, USA) and intensity above background was set for each individual experiment (Kilpatrick et al., [2010]). Areas of internalized receptors were identified by granularity analysis; granules were defined as having a diameter of between 7 and 15 μm and nuclei as having a diameter of between 6 and 9 μm, resulting in a measurement of the granule count per cell for each image. A basal and FSK control was included in each separate concentration-response CRE-SPAP gene transcription assay and cAMP accumulation assay to allow the responses in each cell line to be expressed as an inhibition of FSK-stimulated SPAP production. […] All data were fitted using non-linear regression in Prism 5 (GraphPad Software, San Diego, CA, USA). […] Statistical significance was determined by Student's unpaired t-test or by one-way ANOVA with Dunnett's post hoc analysis and P < 0.05 was considered statistically significant.

`CCCCC#Cc1nc(NC)c2ncn([C@@H]3O[C@H](CO)[C@@H](O)[C@H]3O)c2n1` [HEMADO, 2-(1-hexynyl)-N-methyladenosine]: the “internalization of SNAP-tagged receptor seen in confocal images” value on SNAP-A3 W243F is on record as “did not result in any clear change in the localization”. In addition, the EC50 was 0.245 µM in test [1] (A3-YFP CHO CRE-SPAP cells, 45 min, granule count per cell, read-out: pEC50 (internalization) (converted)) and 0.282 µM in test [1] (A3-YFP cells, PTx 100 ng·mL−1 overnight, read-out: pEC50 (internalization) in the presence of PTx (converted)). In addition, the “decrease in the maximal levels of internalization in the presence of PTx” value in test [1] (A3-YFP cells, PTx pretreatment, reduction vs. 10 μM NECA internalization) worked out at 30 ± 6%. Also, the “Maximal internalization (%)” value in test [1] (A3-YFP cells) was 105.1±11.0%.

With `CCNC(=O)[C@H]1O[C@@H](n2cnc3c(N)ncnc32)[C@H](O)[C@@H]1O` [NECA, 5-(N-ethylcarboxamido)adenosine], the “internalization of SNAP-tagged receptor seen in confocal images” value at SNAP-A3 W243F is listed as “retained the ability to cause internalization”. In test [1] (A3-YFP cells), the “Maximal internalization (%)” value is recorded as 100%.
